Measured values as given in patent publication US20260022143A1, “Cyclic Peptide Inhibitors of IL-23” (JANSSEN PHARMACEUTICA NV, priority 2022, published 2026).
Positions of bridges follow the written chain, without caps; N, C: chain ends. Non-standard residues stand in square brackets, D forms with d. Residues, ends and D or L forms follow the SMILES beside them. ξ: configuration not given here. *: point of attachment. Me3N+(CH2)2O(CH2)2O(CH2)2CO = C[N+](C)(C)CCOCCOCCC(=O)*; CH2CH2OCH2CH2OCH2CH2NMe3+ = C[N+](C)(C)CCOCCOCC*; Trp(7-Me) = Cc1cccc2c(C[C@H](N)C(=O)O)c[nH]c12; 2Nal = N[C@@H](Cc1ccc2ccccc2c1)C(=O)O; AEF = NCCOc1ccc(C[C@H](N)C(=O)O)cc1; 3Pal = N[C@@H](Cc1cccnc1)C(=O)O; Lys(Me) = CNCCCC[C@H](N)C(=O)O; Pen = CC(C)(S)[C@H](N)C(=O)O; ξLys(Me) = CNCCCCC(N)C(=O)O; Thp = NC1(C(=O)O)CCOCC1; Sar = CNCC(=O)O

target: T1, IL-23R (Homo sapiens, UniProt Q5VWK5); assay: IL23R Reporter Assay; type: cell-based; conditions: HEK293 cells containing IL-23R, IL-12RP1 and STAT-inducible firefly luciferase reporter; 10 ng/mL IL-23 (EC90); 5 h at 37° C.; read-out: IL23R Reporter Assay
T1 construct: host or cells: HEK293
T1 sequence (Q5VWK5 24-629): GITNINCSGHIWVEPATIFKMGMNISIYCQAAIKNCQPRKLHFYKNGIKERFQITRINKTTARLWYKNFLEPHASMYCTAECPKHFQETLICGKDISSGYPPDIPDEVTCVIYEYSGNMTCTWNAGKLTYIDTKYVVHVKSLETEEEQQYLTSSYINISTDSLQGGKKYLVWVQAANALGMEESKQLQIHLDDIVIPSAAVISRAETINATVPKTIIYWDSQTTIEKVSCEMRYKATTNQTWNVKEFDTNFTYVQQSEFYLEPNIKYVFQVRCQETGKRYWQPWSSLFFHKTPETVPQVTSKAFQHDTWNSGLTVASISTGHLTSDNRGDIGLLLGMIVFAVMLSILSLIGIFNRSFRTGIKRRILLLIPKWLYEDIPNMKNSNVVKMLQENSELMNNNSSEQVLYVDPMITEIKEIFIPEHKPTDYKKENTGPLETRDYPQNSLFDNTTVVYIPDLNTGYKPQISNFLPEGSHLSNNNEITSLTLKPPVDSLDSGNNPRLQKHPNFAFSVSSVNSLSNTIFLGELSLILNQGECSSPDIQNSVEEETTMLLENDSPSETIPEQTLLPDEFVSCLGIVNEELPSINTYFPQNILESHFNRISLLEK

Row | IC50 [nM] | SMILES
1 | 5.5 | CC(=O)NCCCC[C@@H]1NC(=O)[C@H](Cc2c[nH]c3c(C)cccc23)NC(=O)[C@H]([C@@H](C)O)NC(=O)[C@H](CC(N)=O)NC(=O)[C@@H](NC(C)=O)C(C)(C)SSC(C)(C)[C@@H](C(=O)N[C@@H](Cc2ccc(OCCCC[N+](C)(C)C)cc2)C(=O)N[C@@H](Cc2ccc3ccccc3c2)C(=O)NC2(C(=O)N[C@@H](CCC(=O)O)C(=O)N[C@@H](CC(N)=O)C(=O)N[C@@H](Cc3cccnc3)C(=O)N(C)CC(N)=O)CCOCC2)NC1=O [compound 550, MeCO-Pen(3)-N-T-7MeW-K(Ac)-Pen(3)-TMA4F-2Nal-THP-N-3Pya-Sar-CONH2]
2 | 5.5 | CC(=O)NCCCC[C@@H]1NC(=O)[C@H](Cc2c[nH]c3c(C)cccc23)NC(=O)[C@H]([C@@H](C)O)NC(=O)[C@H](CC(N)=O)NC(=O)[C@@H](NC(=O)CCOCCOCC[N+](C)(C)C)C(C)(C)SSC(C)(C)[C@@H](C(=O)N[C@@H](Cc2ccc(OC(F)F)cc2)C(=O)N[C@@H](Cc2ccc3ccccc3c2)C(=O)NC2(C(=O)N[C@@H](CCCCNC(C)=O)C(=O)N[C@@H](CC(N)=O)C(=O)N[C@@H](Cc3cccnc3)C(=O)N(C)CC(N)=O)CCOCC2)NC1=O [compound 551, cPEG3aCO-Pen(3)-N-T-7MeW-K(Ac)-Pen(3)-YCF2H-2Nal-THP-K(Ac-N-3Pya-Sar-CONH2]
3 | 3.5 | CC(=O)N(C)CCCC[C@@H]1NC(=O)[C@H](Cc2c[nH]c3c(C)cccc23)NC(=O)[C@H]([C@@H](C)O)NC(=O)[C@H](CC(=O)N(C)C)NC(=O)[C@@H](NC(=O)CCOCCOCC[N+](C)(C)C)C(C)(C)SSC(C)(C)[C@@H](C(=O)N[C@@H](Cc2ccc(OCCNC(=O)CCOCCOCC[N+](C)(C)C)cc2)C(=O)N[C@@H](Cc2ccc3ccccc3c2)C(=O)NC2(C(=O)N[C@@H](CCCCN(C)C(C)=O)C(=O)N[C@@H](CC(N)=O)C(=O)N[C@@H](Cc3cccnc3)C(=O)N(C)CC(=O)N(C)C)CCOCC2)NC1=O [compound 571, cPEG3aCO-Pen(3)-N(N(Me)2)-T-7MeW-K(NMeAc)-Pen(3)-AEF(cPEG3a)-2Nal-THP-K(NMeAc)-N-3Pya-Sar-CONMe2] ({Me3N+(CH2)2O(CH2)2O(CH2)2CO}-[Pen]D(NMe2)T[Trp(7-Me)][Lys(Me)](Ac)[Pen][AEF](Me3N+(CH2)2O(CH2)2O(CH2)2CO)[2Nal][Thp][Lys(Me)](Ac)N[3Pal][Sar]-NMe2; disulfide 1-6)
4 | 1390 | CC(=O)N(C)CCCCC(NC(=O)C1(NC(=O)[C@H](Cc2ccc3ccccc3c2)NC(=O)[C@H](Cc2ccc(OCCOCCOCC[N+](C)(C)C)cc2)NC(=O)[C@H]2NC(=O)[C@H](CCCCN(C)C(C)=O)NC(=O)[C@H](Cc3c[nH]c4c(C)cccc34)NC(=O)[C@H]([C@@H](C)O)NC(=O)[C@H](CC(=O)N(C)C)NC(=O)[C@@H](NC(=O)CCOCCOCC[N+](C)(C)C)C(C)(C)SSC2(C)C)CCOCC1)C(=O)N[C@@H](CC(N)=O)C(=O)N[C@@H](C)C(=O)N(C)CC(=O)N(C)C (stereo partly shown) [compound 574, cPEG3aCO-Pen(3)-N(N(Me)2)-T-7MeW-K(NMeAc)-Pen(3)-APEG3F-2Nal-THP-K(NMeAc)-N-A-Sar-CON(Me)2] ({Me3N+(CH2)2O(CH2)2O(CH2)2CO}-[Pen]D(NMe2)T[Trp(7-Me)][Lys(Me)](Ac)[Pen]Y(CH2CH2OCH2CH2OCH2CH2NMe3+)[2Nal][Thp][ξLys(Me)](Ac)NA[Sar]-NMe2; disulfide 1-6)
